Test results taken from patent US8772498B2, “Alkylamine-substituted dicyanopyridine and amino acid ester prodrugs thereof” (Bayer Intellectual Property GmbH, priority 2009, dated 2014).
Structures can show the parent of a compound that is named as a salt.

Experiments:
[1] = Determination of the solubility in 5% strength aqueous dextrose solution; type: physicochemical; conditions: for solubility at 24 h: saline or isotonic, thermodynamic from solid, room temperature
Method: B-8. Determination of Solubility, Stability and Liberation Behavior a) Determination of the Solubility:
The test substance is suspended in 5% strength aqueous dextrose solution. This suspension is shaken at room temperature for 24 h. After ultracentrifugation at 224 000 g for 30 min, the supernatant is diluted with DMSO and analyzed by HPLC. A two-point calibration plot of the test compound in DMSO is used for quantification.
Agilent 1100 with DAD (G1315A), quat. pump (G1311A), autosampler CTC HTS PAL, degasser (G1322A) and column thermostat (G1316A); column: Phenomenex Gemini C18, 5 μm, 50 mm×2 mm; temperature: 40° C.; eluent A: water/phosphoric acid pH 2; eluent B: acetonitrile; flow rate: 0.7 ml/min; gradient: 0-0.5 min 85% A, 15% B; ramp: 0.5-3 min 10% A, 90% B; 3-3.5 min 10% A, 90% B; ramp: 3.5-4 min 85% A, 15% B; 4-5 min 85% A, 15% B.
Agilent 1100 with DAD (G1315A), quat. pump (G1311A), autosampler CTC HTS PAL, degasser (G1322A) and column thermostat (G1316A); column: VDSoptilab Kromasil 100 C18, 3.5 μm, 60 mm×2.1 mm; temperature: 30° C.; eluent A: water+5 ml perchloric acid/I; eluent B: acetonitrile; flow rate: 0.75 ml/min; gradient: 0-0.5 min 98% A, 2% B; ramp: 0.5-4.5 min 10% A, 90% B; 4.5-6 min 10% A, 90% B; ramp: 6.5-6.7 min 98% A, 2% B; 6.7-7.5 min 98% A, 2% B.

adenosine A2b receptor = target: T1, adenosine A2b receptor (Homo sapiens, UniProt P29275); assay: Indirect determination of adenosine agonism by gene expression (luciferase), A2b cells; type: cell-based; conditions: CHO cells, luciferase readout
T1 construct: expressed in transfected cells; host or cells: CHO (Chinese Hamster Ovary)
T1 sequence (P29275 1-332): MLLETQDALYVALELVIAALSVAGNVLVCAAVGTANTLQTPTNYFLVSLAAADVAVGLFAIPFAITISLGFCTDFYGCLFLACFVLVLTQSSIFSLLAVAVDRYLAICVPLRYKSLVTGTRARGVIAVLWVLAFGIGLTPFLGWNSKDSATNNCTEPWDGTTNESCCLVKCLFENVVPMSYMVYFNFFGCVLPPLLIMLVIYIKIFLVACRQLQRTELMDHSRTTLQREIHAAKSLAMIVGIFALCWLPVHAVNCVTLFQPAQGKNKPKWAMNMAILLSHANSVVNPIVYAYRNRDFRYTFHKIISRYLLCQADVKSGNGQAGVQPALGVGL
From the text: (§1) B-1. Indirect Determination of the Adenosine Agonism by Way of Gene Expression
(§2) Cells of the CHO (Chinese Hamster Ovary) permanent cell line are transfected stably with the cDNA for the adenosine receptor subtypes A1, A2a and A2b. The adenosine A1 receptors are coupled to the adenylate cyclase by way of G, proteins, while the adenosine A2a and A2b receptors are coupled by way of Gs proteins. In correspondence with this, the formation of cAMP in the cell is inhibited or stimulated, respectively. After that, expression of the luciferase is modulated by way of a cAMP-dependent promoter. The luciferase test is optimized, with the aim of high sensitivity and reproducibility, low variance and good suitability for implementation on a robot system, by varying several test parameters, such as cell density, duration of the growth phase and the test incubation, forskolin concentration and medium composition. The following test protocol is used for pharmacologically characterizing cells and for the robot-assisted substance screening:
(§3) The stock cultures are grown, at 37° C. and under 5% CO2, in DMEM/F12 medium containing 10% FCS (fetal calf serum) and in each case split 1:10 after 2-3 days. The test cultures are seeded in 384-well plates with 2000 cells per well and grown at 37° C. for approx. 48 hours. The medium is then replaced with a physiological sodium chloride solution (130 mM sodium chloride, 5 mM potassium chloride, 2 mM calcium chloride, 20 mM HEPES, 1 mM magnesium chloride hexahydrate, 5 mM sodium bicarbonate, pH 7.4). The substances to be tested, which are dissolved in DMSO, are pipetted into the test cultures (maximum final concentration of DMSO in the test mixture: 0.5%) in a dilution series of from 5×10^−11 M to 3×10^−6 M (final concentration). 10 minutes later, forskolin is added to the A1 cells and all the cultures are subsequently incubated at 37° C. for four hours. After that, 35 μl of a solution which is composed of 50% lysis reagent (30 mM disodium hydrogenphosphate, 10% glycerol, 3% TritonX100, 25 mM TrisHCl, 2 mM dithiotreitol (DTT), pH 7.8) and 50% luciferase substrate solution (2.5 mM ATP, 0.5 mM luciferin, 0.1 mM coenzyme A, 10 mM tricine, 1.35 mM magnesium sulfate, 15 mM DTT, pH 7.8) are added to the test cultures, which are shaken for approx. 1 minute and the luciferase activity is measured using a camera system. The ECK values are determined, i.e., the concentrations at which 50% of the luciferase answer is inhibited in the case of the A1 cell, and, respectively, 50% of the maximum stimulation with the corresponding substance is achieved in the case of the A2b and A2a cells.
(§4) Table 1 below lists the ECK values of representative working examples for the receptor stimulation on adenosine A1, A2a and A2b receptor subtypes: […]

adenosine A1 receptor = target: T2, adenosine A1 receptor (Homo sapiens, UniProt P30542); assay: Indirect determination of adenosine agonism by gene expression (luciferase), A1 cells; type: cell-based; conditions: CHO cells, luciferase readout, 1 μM forskolin
T2 construct: expressed in transfected cells; host or cells: CHO (Chinese Hamster Ovary)
T2 sequence (P30542 1-326): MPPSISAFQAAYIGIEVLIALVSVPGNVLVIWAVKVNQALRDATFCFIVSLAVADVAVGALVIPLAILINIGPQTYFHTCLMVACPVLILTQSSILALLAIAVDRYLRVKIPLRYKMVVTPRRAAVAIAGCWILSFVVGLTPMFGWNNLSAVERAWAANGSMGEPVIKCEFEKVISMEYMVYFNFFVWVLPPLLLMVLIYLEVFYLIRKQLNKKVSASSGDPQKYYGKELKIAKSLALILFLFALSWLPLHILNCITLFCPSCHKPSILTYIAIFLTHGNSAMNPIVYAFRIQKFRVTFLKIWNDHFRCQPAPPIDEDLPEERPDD
From the text: as §1, §2, §3, §4

[2] = Stability in buffer at various pH values; type: physicochemical
Method: b) Stability in Buffer at Various pH Values:
0.3 mg of the test substance is weighed into a 2 ml HPLC vial and 0.5 ml of acetonitrile or acetonitrile/DMSO (9:1) is added. The substance is dissolved by putting the sample vessel in an ultrasonic bath for about 10 seconds. Then 0.5 ml of the respective (buffer) solution is added, and the sample is again treated in the ultrasonic bath.
(Buffer) solutions employed:
pH 4: 1 liter of Millipore water is adjusted to pH 4.0 with 1 N hydrochloric acid;
pH 7.4: 90.0 g of sodium chloride, 13.61 g of potassium dihydrogen phosphate and 83.35 g of 1 N sodium hydroxide solution are made up to 1 liter with water; this solution is then further diluted 1:10 with Millipore water.
5 μl portions of the test solution are analyzed by HPLC for their content of unchanged test substance, and of active substance (A) produced, every hour over a period of 24 hours at 37° C. The percentage areas of the appropriate peaks are used for quantification.
HPLC method for Examples 41 and 44:
(§5) Agilent 1100 with DAD (G1315B), binary pump (G1312A), autosampler (G1329A), column oven (G1316A), thermostat (G1330B); column: Kromasil 100 C18, 250 mm×4 mm, 5 μm; column temperature: 30° C.; mobile phase A: water+5 ml of perchloric acid/liter, eluent B: acetonitrile; gradient: 0 min 90% A→5.0 min 40% A→18.0 min 10% A→19.0 min 10% A→21.0 min 90% A→23.0 min 90% A; flow rate: 2.0 ml/min; UV detection: 288 nm.
HPLC Method for Examples 50 and 59:
as §5, with “125” for “250”, “60% A→7.0 min 60% A→10.0” for “40% A→18.0”, “A→12.0” for “A→19.0”, “A→14.0” for “A→21.0”, “A→16.0” for “A→23.0”, “294” for “288”
HPLC Method for Example 54:
as §5, with “(G1314A),” for “(G1315B),”, “(G1330A);” for “(G1330B);”
The ratios of the peak areas (F) at the respective time points in relation to the peak areas at the starting time are shown in Table 2 for representative exemplary embodiments: […]

Row | % test substance after 4 h (F(t = 4 h) × 100/F(t = 0 h)) ([2]; pH 4, 37° C.) [%] | % test substance after 24 h (F(t = 24 h) × 100/F(t = 0 h)) ([2]; pH 4, 37° C.) [%] | % test substance after 4 h (F(t = 4 h) × 100/F(t = 0 h)) ([2]; pH 7.4, 37° C.) [%] | % test substance after 24 h (F(t = 24 h) × 100/F(t = 0 h)) ([2]; pH 7.4, 37° C.) [%] | solubility at 24 h [1] [µg/mL] | SMILES | also measured
1 |  |  |  |  |  | CCCNc1nc(SCc2csc(-c3ccc(Cl)cc3)n2)c(C#N)c(-c2ccc(OCCO)cc2)c1C#N [Example 12] | Solubility of the active substance ([1]; result in words): below the detection limit
2 |  |  |  |  |  | N#Cc1c(SCc2csc(-c3ccc(Cl)cc3)n2)nc(N2CCOCC2)c(C#N)c1-c1ccc(OCCO)cc1 [Example 17, 2-({(2-(4-chlorophenyl)-1,3-thiazol-4-yl)methyl}sulfanyl)-4-(4-(2-hydroxyethoxy)phenyl)-6-(morpholin-4-yl)pyridine-3,5-dicarbonitrile] | EC50 (adenosine A2b receptor): 55 nM; EC50 (adenosine A1 receptor): 0.3 nM
3 | 99 | 99 | 94 | 78 |  | N#Cc1c(SCc2csc(-c3ccc(Cl)cc3)n2)nc(N2CCCC2)c(C#N)c1-c1ccc(OCCOC(=O)CCN)cc1 [Example 50, 2-{4-(2-({(2-(4-Chlorophenyl)-1,3-thiazol-4-yl)methyl}sulfanyl)-3,5-dicyano-6-(pyrrolidin-1-yl)pyridin-4-yl)phenoxy}ethyl beta-alaninate trifluoroacetate] | 
4 |  |  |  |  | 540 | CCCNc1nc(SCc2csc(-c3ccc(Cl)cc3)n2)c(C#N)c(-c2ccc(OCCOC(=O)[C@H](C)NC(=O)[C@H](C)N)cc2)c1C#N [Example 51, 2-{4-(2-({(2-(4-Chlorophenyl)-1,3-thiazol-4-yl)methyl}sulfanyl)-3,5-dicyano-6-(propylamino)pyridin-4-yl)phenoxy}ethyl L-alanyl-L-alaninate trifluoroacetate] | 
5 |  |  |  |  | 280 | CNc1nc(SCc2csc(-c3ccc(Cl)cc3)n2)c(C#N)c(-c2ccc(OCCOC(=O)[C@@H](N)CCCN)cc2)c1C#N [Example 52, 2-{4-(2-({(2-(4-Chlorophenyl)-1,3-thiazol-4-yl)methyl}sulfanyl)-3,5-dicyano-6-(methylamino)pyridin-4-yl)phenoxy}ethyl L-ornithinate bis(trifluoroacetate)] | 
6 | 98 | 97 | 29 | 0 | 640 | CCCNc1nc(SCc2csc(-c3ccc(Cl)cc3)n2)c(C#N)c(-c2ccc(OCCOC(=O)[C@H](C)NC(=O)[C@@H](N)CCCCN)cc2)c1C#N [Example 54, 2-{4-(2-({(2-(4-Chlorophenyl)-1,3-thiazol-4-yl)methyl}sulfanyl)-3,5-dicyano-6-(propylamino)pyridin-4-yl)phenoxy}ethyl L-lysyl-L-alaninate bis(trifluoroacetate)] | 
7 |  |  |  |  | 470 | C[C@H](NC(=O)[C@@H](N)CCCN)C(=O)OCCOc1ccc(-c2c(C#N)c(SCc3csc(-c4ccc(Cl)cc4)n3)nc(N3CCCC3)c2C#N)cc1 [Example 58, 2-{4-(2-({(2-(4-Chlorophenyl)-1,3-thiazol-4-yl)methyl}sulfanyl)-3,5-dicyano-6-(pyrrolidin-1-yl)pyridin-4-yl)phenoxy}ethyl L-ornithyl-L-alaninate bis(trifluoroacetate)] | 
8 | 99 | 95 | 0 | 0 |  | N#Cc1c(SCc2csc(-c3ccc(Cl)cc3)n2)nc(N2CCCC2)c(C#N)c1-c1ccc(OCCOC(=O)[C@@H](N)CCCN)cc1 [Example 59, 2-{4-(2-({(2-(4-Chlorophenyl)-1,3-thiazol-4-yl)methyl}sulfanyl)-3,5-dicyano-6-(pyrrolidin-1-yl)pyridin-4-yl)phenoxy}ethyl L-ornithinate bis(trifluoroacetate)] | 
